Experimental data as given in ChEMBL document CHEMBL5614426 (J Med Chem, 2024).
One block for each compound: values may come before it.

Legend:
[1] = target: T1, Histone-lysine N-methyltransferase NSD2 (Homo sapiens, UniProt O96028); assay: Inhibition of NSD2-SET domain (unknown origin)
T1 sequence (O96028 whole entry): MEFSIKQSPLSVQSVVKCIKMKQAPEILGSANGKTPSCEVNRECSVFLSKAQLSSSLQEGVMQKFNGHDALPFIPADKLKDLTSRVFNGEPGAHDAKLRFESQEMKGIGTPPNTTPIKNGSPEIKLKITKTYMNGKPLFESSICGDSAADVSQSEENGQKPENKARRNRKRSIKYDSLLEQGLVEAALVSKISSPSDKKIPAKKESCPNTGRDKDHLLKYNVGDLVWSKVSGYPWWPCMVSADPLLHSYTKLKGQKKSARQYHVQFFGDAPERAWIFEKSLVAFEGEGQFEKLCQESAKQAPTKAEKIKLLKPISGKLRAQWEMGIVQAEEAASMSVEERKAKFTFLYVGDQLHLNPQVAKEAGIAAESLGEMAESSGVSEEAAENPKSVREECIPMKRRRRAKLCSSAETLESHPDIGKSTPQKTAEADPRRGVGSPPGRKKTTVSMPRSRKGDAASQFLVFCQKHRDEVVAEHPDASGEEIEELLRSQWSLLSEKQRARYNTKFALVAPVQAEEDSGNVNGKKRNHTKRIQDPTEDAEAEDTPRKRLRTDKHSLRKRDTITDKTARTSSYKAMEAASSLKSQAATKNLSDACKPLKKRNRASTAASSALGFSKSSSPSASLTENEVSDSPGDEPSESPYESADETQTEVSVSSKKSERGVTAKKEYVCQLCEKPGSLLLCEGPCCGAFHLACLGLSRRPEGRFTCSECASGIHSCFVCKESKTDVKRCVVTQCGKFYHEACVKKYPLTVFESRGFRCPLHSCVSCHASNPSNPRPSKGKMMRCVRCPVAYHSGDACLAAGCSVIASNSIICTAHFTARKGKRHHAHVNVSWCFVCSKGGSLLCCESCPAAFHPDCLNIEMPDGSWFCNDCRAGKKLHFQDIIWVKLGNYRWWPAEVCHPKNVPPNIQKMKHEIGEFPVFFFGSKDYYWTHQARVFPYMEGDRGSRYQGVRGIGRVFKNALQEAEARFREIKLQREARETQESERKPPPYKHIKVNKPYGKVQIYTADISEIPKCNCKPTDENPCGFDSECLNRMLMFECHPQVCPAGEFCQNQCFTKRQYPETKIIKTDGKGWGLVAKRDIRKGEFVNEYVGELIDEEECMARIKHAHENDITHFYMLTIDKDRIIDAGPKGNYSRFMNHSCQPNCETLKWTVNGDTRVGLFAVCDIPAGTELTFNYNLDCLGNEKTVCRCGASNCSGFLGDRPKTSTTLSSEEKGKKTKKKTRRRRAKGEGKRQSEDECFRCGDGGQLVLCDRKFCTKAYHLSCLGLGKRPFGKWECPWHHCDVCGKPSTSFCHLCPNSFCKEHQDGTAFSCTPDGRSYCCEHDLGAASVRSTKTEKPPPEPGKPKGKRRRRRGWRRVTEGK

[2] = Toxicity in female NU/NU mouse xenografted with human RS4-11 cells assessed as change in body weight at 50 mg/kg, po administered for 21 days; assay type: organism-based; details: in vivo, 504 h, time 21 day
[3] = MRT (0 to t) in mouse at 50 mg/kg, po measured upto 24 hrs by LC-MS/MS analysis; assay type: ADME, organism-based; details: in vivo
[4] = Cmax in mouse at 1 mg/kg, iv measured upto 24 hrs by LC-MS/MS analysis; assay type: ADME, organism-based; details: in vivo
[5] = target: T2, Histone-lysine N-methyltransferase EHMT1 (Homo sapiens, UniProt Q9H9B1); assay: Inhibition of GLP (unknown origin)
T2 sequence (Q9H9B1 whole entry): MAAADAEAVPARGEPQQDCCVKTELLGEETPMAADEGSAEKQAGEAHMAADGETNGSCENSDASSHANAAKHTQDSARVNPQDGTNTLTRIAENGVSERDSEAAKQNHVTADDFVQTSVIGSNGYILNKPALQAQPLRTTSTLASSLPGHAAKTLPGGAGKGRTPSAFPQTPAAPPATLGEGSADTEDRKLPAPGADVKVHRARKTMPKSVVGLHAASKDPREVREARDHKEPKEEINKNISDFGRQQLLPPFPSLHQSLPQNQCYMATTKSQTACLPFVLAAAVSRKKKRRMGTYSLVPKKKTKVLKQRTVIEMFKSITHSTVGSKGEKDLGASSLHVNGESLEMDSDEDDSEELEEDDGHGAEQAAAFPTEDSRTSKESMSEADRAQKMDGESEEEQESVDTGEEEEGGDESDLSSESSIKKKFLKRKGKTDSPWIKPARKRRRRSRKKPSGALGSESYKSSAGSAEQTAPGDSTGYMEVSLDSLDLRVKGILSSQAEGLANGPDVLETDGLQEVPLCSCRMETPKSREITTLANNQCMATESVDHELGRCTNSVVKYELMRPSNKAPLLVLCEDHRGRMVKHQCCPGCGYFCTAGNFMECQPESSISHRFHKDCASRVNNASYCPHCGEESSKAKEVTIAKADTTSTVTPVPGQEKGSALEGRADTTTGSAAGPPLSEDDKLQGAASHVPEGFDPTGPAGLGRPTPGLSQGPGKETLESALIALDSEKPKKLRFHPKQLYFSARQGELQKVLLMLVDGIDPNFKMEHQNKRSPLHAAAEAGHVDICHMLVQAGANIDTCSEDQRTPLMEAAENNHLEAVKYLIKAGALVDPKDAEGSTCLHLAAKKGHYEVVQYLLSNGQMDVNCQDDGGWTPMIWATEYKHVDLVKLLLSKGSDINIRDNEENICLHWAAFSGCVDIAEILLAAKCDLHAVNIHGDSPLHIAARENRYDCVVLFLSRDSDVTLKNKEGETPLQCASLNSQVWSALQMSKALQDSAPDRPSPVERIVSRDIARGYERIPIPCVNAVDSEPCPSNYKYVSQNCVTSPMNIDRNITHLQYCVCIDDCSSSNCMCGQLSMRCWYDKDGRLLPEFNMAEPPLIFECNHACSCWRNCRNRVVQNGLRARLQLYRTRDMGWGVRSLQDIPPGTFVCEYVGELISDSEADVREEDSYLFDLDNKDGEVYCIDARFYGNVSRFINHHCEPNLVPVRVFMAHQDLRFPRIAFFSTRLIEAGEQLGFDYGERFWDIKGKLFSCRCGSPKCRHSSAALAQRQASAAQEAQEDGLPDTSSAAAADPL

[6] = target: Protein arginine N-methyltransferase 8 (Homo sapiens, UniProt Q9NR22); assay: Inhibition of PRMT8 (unknown origin)
[7] = MRT (0 to t) in mouse at 1 mg/kg, iv measured upto 24 hrs by LC-MS/MS analysis; assay type: ADME, organism-based; details: in vivo
[8] = Cmax in mouse at 50 mg/kg, po measured upto 24 hrs by LC-MS/MS analysis; assay type: ADME, organism-based; details: in vivo
[9] = target: Histone-lysine N-methyltransferase 2A (Homo sapiens, UniProt Q03164); assay: Inhibition of MLL1 (unknown origin)
[10] = target: T3, Histone-arginine methyltransferase CARM1 (Homo sapiens, UniProt Q86X55); assay: Inhibition of PRMT4 (unknown origin)
T3 sequence (Q86X55 whole entry): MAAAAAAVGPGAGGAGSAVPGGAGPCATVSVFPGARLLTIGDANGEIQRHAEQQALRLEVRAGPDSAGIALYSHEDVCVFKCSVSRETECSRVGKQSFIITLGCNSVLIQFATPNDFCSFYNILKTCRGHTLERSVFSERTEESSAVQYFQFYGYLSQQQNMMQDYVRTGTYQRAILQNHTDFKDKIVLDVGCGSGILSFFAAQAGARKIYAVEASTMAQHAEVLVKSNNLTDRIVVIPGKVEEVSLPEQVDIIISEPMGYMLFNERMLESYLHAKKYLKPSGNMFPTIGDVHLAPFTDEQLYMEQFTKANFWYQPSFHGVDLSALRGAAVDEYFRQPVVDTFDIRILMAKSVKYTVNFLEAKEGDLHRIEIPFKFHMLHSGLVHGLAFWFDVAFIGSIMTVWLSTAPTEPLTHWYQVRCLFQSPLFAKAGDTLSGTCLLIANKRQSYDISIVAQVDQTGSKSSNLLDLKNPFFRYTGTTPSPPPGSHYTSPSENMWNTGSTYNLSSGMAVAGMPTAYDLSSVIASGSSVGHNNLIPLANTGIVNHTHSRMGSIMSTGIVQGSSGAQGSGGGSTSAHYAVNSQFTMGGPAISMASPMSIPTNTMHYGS

[11] = Half life in mouse at 1 mg/kg, iv measured upto 24 hrs by LC-MS/MS analysis; assay type: ADME, organism-based; details: in vivo
[12] = target: Histone-lysine N-methyltransferase 2B (Homo sapiens, UniProt Q9UMN6); assay: Inhibition of MLL4 (unknown origin)
[13] = Oral bioavailability in mouse at 50 mg/kg measured upto 24 hrs by LC-MS/MS analysis; assay type: ADME, organism-based; details: in vivo
[14] = Half life in mouse at 50 mg/kg, po measured upto 24 hrs by LC-MS/MS analysis; assay type: ADME, organism-based; details: in vivo
[15] = AUC (0 to infinity) in mouse at 50 mg/kg, po measured upto 24 hrs by LC-MS/MS analysis; assay type: ADME, organism-based; details: in vivo
[16] = Volume of distribution at steady state in mouse at 1 mg/kg, iv measured upto 24 hrs by LC-MS/MS analysis; assay type: ADME, organism-based; details: in vivo, read-out: Vdss
[17] = target: Histone-lysine N-methyltransferase EZH2 (Homo sapiens, UniProt Q15910); assay: Inhibition of EZH2 (unknown origin)
[18] = AUC (0 to last) in mouse at 1 mg/kg, iv measured upto 24 hrs by LC-MS/MS analysis; assay type: ADME, organism-based; details: in vivo
[19] = AUC (0 to infinity) in mouse at 1 mg/kg, iv measured upto 24 hrs by LC-MS/MS analysis; assay type: ADME, organism-based; details: in vivo
[20] = target: DNA (cytosine-5)-methyltransferase 1 (Homo sapiens, UniProt P26358); assay: Inhibition of DNMT1 (unknown origin)
[21] = target: Protein arginine N-methyltransferase 5 (Homo sapiens, UniProt O14744); assay: Inhibition of PRMT5 (unknown origin)
[22] = AUC (0 to last) in mouse at 50 mg/kg, po measured upto 24 hrs by LC-MS/MS analysis; assay type: ADME, organism-based; details: in vivo

Sequence of Protein arginine N-methyltransferase 8 (Q9NR22 whole entry): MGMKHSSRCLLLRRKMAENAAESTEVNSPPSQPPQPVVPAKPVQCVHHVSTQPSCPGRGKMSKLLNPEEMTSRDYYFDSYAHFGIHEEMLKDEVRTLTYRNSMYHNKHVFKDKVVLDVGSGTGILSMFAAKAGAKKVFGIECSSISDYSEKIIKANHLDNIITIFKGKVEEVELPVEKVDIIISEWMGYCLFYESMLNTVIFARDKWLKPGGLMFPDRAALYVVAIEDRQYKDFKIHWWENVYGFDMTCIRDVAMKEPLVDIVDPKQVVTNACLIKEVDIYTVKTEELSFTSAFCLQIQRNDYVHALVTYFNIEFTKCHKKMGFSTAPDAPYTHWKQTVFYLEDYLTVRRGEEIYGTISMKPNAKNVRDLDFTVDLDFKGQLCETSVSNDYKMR
Sequence of Histone-lysine N-methyltransferase 2A (Q03164 1-2718 limits assumed): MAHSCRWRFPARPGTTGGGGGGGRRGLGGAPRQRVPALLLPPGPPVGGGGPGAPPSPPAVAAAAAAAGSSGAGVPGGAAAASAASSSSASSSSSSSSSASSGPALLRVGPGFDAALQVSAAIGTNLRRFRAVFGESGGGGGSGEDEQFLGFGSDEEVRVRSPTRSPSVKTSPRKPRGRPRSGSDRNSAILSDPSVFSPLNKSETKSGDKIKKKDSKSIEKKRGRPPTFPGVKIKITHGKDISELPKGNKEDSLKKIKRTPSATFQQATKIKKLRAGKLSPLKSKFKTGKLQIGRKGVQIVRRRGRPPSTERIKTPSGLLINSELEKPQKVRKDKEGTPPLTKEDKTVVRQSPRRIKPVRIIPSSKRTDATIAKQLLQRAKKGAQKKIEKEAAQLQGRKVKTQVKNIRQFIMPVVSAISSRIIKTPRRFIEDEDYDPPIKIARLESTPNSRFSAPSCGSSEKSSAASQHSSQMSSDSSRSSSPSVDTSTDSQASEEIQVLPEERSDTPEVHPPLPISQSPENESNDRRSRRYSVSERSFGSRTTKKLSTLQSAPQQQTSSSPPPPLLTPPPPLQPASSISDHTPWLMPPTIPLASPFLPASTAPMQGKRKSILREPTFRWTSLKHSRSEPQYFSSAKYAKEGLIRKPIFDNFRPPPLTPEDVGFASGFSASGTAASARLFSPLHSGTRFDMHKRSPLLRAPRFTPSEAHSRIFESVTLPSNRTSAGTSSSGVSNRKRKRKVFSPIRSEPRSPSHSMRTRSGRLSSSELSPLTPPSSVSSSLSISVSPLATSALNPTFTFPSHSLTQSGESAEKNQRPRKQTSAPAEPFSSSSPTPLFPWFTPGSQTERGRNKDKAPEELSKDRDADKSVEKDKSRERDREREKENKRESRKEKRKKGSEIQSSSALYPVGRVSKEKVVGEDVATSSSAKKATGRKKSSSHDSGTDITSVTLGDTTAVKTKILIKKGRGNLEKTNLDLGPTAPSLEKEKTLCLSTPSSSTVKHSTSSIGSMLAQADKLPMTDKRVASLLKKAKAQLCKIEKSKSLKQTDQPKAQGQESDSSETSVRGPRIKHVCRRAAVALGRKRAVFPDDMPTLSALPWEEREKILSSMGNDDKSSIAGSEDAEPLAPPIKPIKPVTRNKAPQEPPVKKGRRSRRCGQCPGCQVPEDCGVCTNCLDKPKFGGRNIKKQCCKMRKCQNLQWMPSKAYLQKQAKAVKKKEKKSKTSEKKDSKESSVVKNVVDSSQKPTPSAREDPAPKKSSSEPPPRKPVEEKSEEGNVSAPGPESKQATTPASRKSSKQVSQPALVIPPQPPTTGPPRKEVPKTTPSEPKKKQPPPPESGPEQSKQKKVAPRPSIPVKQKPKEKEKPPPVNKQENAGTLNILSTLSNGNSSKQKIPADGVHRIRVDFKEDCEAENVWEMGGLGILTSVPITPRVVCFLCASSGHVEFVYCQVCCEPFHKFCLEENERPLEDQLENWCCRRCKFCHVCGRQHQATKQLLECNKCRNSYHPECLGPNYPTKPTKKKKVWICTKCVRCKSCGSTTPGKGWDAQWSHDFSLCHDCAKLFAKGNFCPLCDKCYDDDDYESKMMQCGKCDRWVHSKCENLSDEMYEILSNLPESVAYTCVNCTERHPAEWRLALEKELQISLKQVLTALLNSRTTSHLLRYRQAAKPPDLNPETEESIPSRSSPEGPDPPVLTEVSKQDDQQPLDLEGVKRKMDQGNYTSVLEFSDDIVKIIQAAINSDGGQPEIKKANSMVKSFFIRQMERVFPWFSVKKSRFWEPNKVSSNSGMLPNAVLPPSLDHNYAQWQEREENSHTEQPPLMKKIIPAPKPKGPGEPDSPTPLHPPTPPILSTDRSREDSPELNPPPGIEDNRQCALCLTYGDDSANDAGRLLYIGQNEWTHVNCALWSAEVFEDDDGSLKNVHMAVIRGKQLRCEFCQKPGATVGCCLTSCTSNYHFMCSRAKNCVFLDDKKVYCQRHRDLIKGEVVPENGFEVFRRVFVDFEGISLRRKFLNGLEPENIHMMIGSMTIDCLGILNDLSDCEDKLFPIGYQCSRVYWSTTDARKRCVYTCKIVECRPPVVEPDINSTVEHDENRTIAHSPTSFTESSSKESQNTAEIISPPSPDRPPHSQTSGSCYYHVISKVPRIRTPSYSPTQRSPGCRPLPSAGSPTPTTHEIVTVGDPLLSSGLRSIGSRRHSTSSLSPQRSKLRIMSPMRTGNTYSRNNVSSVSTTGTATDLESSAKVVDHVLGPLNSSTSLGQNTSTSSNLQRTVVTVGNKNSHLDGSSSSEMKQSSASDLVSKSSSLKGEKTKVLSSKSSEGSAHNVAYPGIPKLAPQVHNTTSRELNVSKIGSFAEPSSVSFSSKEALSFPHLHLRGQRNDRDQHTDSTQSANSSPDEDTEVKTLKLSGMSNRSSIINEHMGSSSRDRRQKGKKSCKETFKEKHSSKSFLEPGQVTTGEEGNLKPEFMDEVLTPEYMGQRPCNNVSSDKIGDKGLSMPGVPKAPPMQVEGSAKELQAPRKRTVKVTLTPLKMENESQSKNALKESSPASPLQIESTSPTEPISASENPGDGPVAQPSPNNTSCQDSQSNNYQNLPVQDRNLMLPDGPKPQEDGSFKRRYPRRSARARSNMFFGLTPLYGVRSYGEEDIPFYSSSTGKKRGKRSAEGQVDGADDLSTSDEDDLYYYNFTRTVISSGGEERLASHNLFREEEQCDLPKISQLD
Sequence of Histone-lysine N-methyltransferase 2A (Q03164 2719-3969 limits assumed): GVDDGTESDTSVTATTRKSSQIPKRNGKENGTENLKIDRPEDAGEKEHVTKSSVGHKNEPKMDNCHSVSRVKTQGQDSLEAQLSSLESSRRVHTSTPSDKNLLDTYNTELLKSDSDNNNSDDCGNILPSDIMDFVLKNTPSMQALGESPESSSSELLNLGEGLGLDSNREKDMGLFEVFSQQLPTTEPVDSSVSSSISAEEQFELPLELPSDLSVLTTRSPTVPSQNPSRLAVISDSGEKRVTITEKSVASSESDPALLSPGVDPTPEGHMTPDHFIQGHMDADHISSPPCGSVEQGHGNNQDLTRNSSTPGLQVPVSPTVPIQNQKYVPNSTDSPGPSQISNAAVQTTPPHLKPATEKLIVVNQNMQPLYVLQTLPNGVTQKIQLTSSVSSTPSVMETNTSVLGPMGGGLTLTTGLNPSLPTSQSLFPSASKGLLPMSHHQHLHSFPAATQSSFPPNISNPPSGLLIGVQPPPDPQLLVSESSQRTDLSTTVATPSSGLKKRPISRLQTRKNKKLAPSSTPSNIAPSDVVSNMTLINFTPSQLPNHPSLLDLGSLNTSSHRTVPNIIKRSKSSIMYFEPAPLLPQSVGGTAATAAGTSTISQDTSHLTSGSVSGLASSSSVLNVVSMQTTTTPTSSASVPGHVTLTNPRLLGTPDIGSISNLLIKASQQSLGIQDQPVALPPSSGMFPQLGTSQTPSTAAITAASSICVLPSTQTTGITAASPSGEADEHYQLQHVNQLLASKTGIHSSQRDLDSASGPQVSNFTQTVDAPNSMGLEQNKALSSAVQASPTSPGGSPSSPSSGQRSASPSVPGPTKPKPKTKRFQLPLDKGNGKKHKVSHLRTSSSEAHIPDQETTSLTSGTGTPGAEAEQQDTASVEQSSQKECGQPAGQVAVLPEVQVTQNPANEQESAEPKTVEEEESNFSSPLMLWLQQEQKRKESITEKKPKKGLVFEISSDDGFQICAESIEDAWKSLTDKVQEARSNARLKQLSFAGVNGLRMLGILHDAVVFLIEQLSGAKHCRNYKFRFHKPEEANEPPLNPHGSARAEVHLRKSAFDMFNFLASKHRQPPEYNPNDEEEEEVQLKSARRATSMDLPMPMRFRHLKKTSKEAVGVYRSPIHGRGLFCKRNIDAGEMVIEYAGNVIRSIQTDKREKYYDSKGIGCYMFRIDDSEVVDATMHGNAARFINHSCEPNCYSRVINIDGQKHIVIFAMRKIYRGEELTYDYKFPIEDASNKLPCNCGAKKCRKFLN
Sequence of Protein arginine N-methyltransferase 5 (O14744 whole entry): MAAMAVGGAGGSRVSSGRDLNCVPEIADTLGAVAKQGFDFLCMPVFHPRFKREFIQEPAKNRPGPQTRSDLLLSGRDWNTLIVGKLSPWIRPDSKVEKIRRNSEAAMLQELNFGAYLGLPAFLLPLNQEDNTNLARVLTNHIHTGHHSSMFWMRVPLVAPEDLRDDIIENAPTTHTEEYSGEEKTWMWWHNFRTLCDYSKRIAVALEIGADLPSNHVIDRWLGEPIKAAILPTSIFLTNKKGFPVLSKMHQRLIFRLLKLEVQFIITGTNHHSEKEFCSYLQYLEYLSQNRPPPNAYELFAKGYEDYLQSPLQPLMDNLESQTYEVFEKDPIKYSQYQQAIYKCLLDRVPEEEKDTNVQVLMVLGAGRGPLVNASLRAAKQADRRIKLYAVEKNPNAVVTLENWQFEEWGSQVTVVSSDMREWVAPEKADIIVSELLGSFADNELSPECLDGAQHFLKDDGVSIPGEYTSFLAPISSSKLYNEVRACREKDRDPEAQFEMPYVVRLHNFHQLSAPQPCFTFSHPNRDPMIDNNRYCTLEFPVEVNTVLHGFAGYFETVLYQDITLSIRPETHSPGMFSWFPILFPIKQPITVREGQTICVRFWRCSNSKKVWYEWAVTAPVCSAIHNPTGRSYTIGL

IC50 [1]: < 0.1 µM
Compound: COc1cc(F)c(-c2cc(Cn3cnc4c(N)ncnc43)c(N3CCC[C@](N)([C@H](O)C(F)F)C3)cn2)cc1F

MRT last at 24 h [3]: 5.3 h | Cmax [4]: 280 nM | IC50 [5]: > 10 µM | IC50 [6]: > 10 µM | MRT last at 24 h [7]: 6.12 h | Cmax [8]: 1160 nM | IC50 [9]: > 10 µM | IC50 [10]: 8.96 µM | t1/2 [11]: 8 h | IC50 [12]: > 10 µM | bioavailability [13]: 27.3% | half-life [14]: 6.35 h | AUC [15]: 1760 ng·h/mL | Vd [16]: 46 L/kg | IC50 [17]: > 10 µM | AUClast [18]: 123.9 ng·h/mL | AUC [19]: 134 ng·h/mL | IC50 [20]: > 10 µM | IC50 [21]: > 10 µM | AUClast [22]: 1694.02 ng·h/mL
Compound: COc1cc2c(NC3CCN(C(C)C)CC3)nc(C#N)nc2cc1OCCCN1CCOCC1
Activity [2]: Non-Toxic
